For test [1], the target named is T1, cloned human κ opioid receptor (Homo sapiens, UniProt P41145).
T1 construct: expressed in transfected cells
In words: In vitro binding assay, inhibition of [3H]diprenorphine binding, κ receptor. Particulars: [3H]diprenorphine displacement; read-out: Ki against the human κ receptor. As to the method: (§1) The potencies of the compounds of the invention were determined by testing the ability of a range of concentrations of each compound to inhibit the binding of the non-selective opioid antagonist, [^3H]diprenorphine, to the cloned human μ, κ, and δ opioid receptors, expressed in separate cell lines. IC50 values were obtained by nonlinear analysis of the data using GraphPad Prism version 3.00 for Windows (GraphPad Software, San Diego). Ki values were obtained by Cheng-Prusoff corrections of IC50 values.
(§2) The receptor binding method was a modification of the method of K. Raynor et al. (Mol. Pharmacol. 1994, 45, 330–334). […] The filters were rinsed 4 times with 1 mL of cold 50 mM Tris HCl, pH 7.8 and radioactivity remaining on the filters determined by scintillation spectroscopy. Nonspecific binding was determined by the minimum values of the titration curves and was confirmed by separate assay wells containing 10 μM naloxone. Ki values were determined by Cheng-Prusoff corrections of IC50 values derived from nonlinear regression fits of 12 point titration curves using GraphPad Prism® version 3.00 for Windows (GraphPad Software, San Diego, Calif.).
(§3) To determine the equilibrium dissociation constant for the inhibitors (Ki), radioligand bound (cpm) in the presence of various concentrations of test compounds was measured. […]

Test [2] has as its system formalin-induced flinching. The test can be described thus: In vivo formalin-induced nociception assay. Further details: species or system male Sprague-Dawley rats. The following applies: dose of 300 μg, i.paw. From the text: Administration of formalin into the paw results in a localized inflammation and a pain response that is moderate in intensity and continuous in duration. Unlike many other assays of nociception, the formalin assay measures tonic pain that is a result of tissue injury, and therefore is a model that is more relevant to clinical pain states in humans (See Tjolsen et al., Pain 51: 5–17, 1992). In the rat the response to formalin-induced pain consists of spontaneous flinching behavior, characterized by paw lifting and paw shaking, and a rapid vibration of the paw after drawing it under the body. […] The early or acute phase lasts from 0–5 minutes post-formalin and is followed by a quiescent period lasting approximately 15 minutes. The tonic phase occurs from 20–35 minutes following formalin injection and is the interval where the number of flinching responses is maximal. […]
Inflammation is induced by subcutaneous injection of […] of a 5% formalin solution into the dorsal surface of the right hind paw of male Sprague-Dawley rats weighing 70–90 g. Injections of drug are given into the dorsal surface of the paw prior to formalin injection, and flinching behavior is quantified by counting the number of responses that occur during the tonic phase of pain, lasting from 20–35 minutes after formalin injection. […]

In test [3] the target is T2, cloned human μ opioid receptor (Homo sapiens, UniProt P35372).
T2 construct: expressed in transfected cells
T2 sequence (P35372 whole entry): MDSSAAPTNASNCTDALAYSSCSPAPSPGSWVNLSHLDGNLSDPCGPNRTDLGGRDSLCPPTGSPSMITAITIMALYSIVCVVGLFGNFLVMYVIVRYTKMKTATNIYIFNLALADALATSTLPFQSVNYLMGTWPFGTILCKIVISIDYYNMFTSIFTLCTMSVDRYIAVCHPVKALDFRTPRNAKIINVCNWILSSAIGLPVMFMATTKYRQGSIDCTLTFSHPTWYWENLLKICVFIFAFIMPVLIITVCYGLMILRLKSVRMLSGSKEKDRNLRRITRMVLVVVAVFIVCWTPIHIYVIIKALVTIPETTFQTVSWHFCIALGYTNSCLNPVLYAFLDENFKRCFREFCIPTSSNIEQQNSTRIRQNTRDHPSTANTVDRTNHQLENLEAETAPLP
In words: In vitro binding assay, inhibition of [3H]diprenorphine binding, μ receptor. The following applies: κ versus μ. The procedure:
as §1, §2, §3

Test [4] deals with acetic acid-induced writhing. In words: Acetic acid-induced writhing. It is filed as in vivo, male CF-1 mice. Particulars: Mus musculus, sc; administered subcutaneously; read-out: ED50, blocking of acetic acid-induced writhing. The procedure:
Injection of acetic acid into the peritoneal cavity is used as the noxious stimulus, and the number of writhing responses that occur in response to acetic acid are counted in order to quantify the response to pain.
The writhing assay is adapted from the procedure originally described by Taber, et al. (J. Pharmacol. Exp. Ther. 169: 29–38, 1986), using male CF-1 mice weighing 20–25 g. Animals are treated with various doses of drugs prior to the administration of an i.p. injection of 0.6% acetic acid solution. Mice are then placed into observation chambers and the number of writhing responses, as defined by a full hind limb extension and retraction, are recorded.
The mean number of writhing responses is calculated for vehicle-treated control mice, and the percent inhibition (% I) of writhing is calculated for each mouse that is treated with drug using the following formula: % I=100×(mean control writhing responses−individual test responses)(mean control writhing responses) (f) Hyperalgesia Induced by Tape Stripping
A general note: An intraperitoneal irritant provokes the stretching counted in writhing tests.

Another test has as its target T3, cloned human κ receptors (Homo sapiens, UniProt P41145).
T3 construct: expressed in transfected cells
In words: Stimulation of [35S]GTPγS binding to membranes. It is filed as biochemical. As to the method:
The potencies of the agonists were assessed by their abilities to stimulate [^35S]GTPγS binding to membranes containing the cloned human κ receptors.
To determine the EC50 value, which was the concentration to give half-maximal stimulation of [^35S]GTPγS binding, the amount of [^35S]GTPγS bound in the presence of various concentrations of agonists was measured. The EC50 value was then determined.
(In general: Binding of GTPγS marks nucleotide exchange on a G protein.)

The target of test [5] is T4, cloned human δ opioid receptor (Homo sapiens, UniProt P41143).
T4 construct: expressed in transfected cells
T4 sequence (P41143 whole entry): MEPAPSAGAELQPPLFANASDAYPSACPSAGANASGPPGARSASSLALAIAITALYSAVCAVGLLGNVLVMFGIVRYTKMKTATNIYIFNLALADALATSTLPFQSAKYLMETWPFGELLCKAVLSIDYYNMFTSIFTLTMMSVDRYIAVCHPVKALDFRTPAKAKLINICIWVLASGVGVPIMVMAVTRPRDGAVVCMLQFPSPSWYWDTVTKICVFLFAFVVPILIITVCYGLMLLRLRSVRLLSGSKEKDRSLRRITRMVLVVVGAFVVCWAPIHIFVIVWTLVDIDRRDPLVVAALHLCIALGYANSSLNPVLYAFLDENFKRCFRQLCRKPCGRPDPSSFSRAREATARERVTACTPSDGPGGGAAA
In words: In vitro binding assay, inhibition of [3H]diprenorphine binding, δ receptor. Particulars: κ versus δ. The procedure:
as §1, §2, §3

pEC50, pKi: −log10 of the molar value.

T3 sequence (P41145 whole entry): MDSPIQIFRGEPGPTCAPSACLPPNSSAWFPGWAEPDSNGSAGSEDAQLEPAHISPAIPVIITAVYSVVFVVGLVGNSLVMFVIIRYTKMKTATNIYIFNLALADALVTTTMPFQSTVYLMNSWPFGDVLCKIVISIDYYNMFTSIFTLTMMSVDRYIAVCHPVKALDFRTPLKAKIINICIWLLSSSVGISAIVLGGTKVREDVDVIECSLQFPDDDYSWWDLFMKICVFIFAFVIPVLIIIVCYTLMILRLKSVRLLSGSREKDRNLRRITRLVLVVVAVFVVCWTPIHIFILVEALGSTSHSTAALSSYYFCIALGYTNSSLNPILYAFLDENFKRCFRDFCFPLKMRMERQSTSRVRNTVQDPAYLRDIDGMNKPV
T1 sequence (P41145 whole entry): as above

For `CN(C(=O)CNc1ccccc1)[C@H](CN1CC[C@H](O)C1)c1ccccc1` [Example 1, N-{2-[(S)-3-Hydroxy-pyrrolidin-1-yl]-(S)-1-phenyl-ethyl}-N-methyl-2-phenylamino-acetamide], the negative logarithm of the Ki (pKi) (commonly the negative decadic logarithm of the Ki, by convention in mol/L) in test [1] is 9.77. For the same compound, the “% A (percent antagonism of formalin-induced flinching)” value in test [2] is 96.2%. In addition, the “selectivity versus the human μ receptor” value in test [3] is on record as over 100 ×. Besides, the 50% effective dose (ED50) (in general, the dose that gives a 50% effect, or the effect in half of the subjects) in test [4] was found to be 0.017 mg/kg. In addition, the “functional activity at κ receptor” value at cloned human κ receptors is “agonist”. Besides, the negative logarithm of the EC50 (pEC50) (as a rule, the EC50 on a negative log10 scale, so that one unit is a factor of ten) on cloned human κ receptors (half-maximal stimulation of [35S]GTPγS binding, read-out: EC50 (agonist)) was 10.30. The “selectivity versus the human δ receptor” value in test [5] was over 100 ×.

The record behind these values is patent publication US7160902B2, “Amide derivatives and methods of their use” (Adolor Corporation, priority 2003, dated 2007).
